From PMC11213934, “Allosteric modulators of M1 muscarinic receptors enhance acetylcholine efficacy and decrease locomotor activity and turning behaviors in zebrafish” (Scientific Reports, 2024)
“Also recorded” adds a separate entry of the source. Marks after values point to notes of the source that are not given here.

Assays:
[1] = system: wild-type (AB) zebrafish (Danio rerio); assay: Maximum tolerated concentration (MTC) determination in larval zebrafish; type: in vivo; conditions: for MTC (maximum tolerated concentration): after 24 h exposure, 5 dpf larvae; for Concentration up to which no signs of toxicity were produced: highest concentration tested
[2] = system: wild-type (AB) zebrafish (Danio rerio); assay: animal or person; type: in vivo; conditions: for Concentration with significant effects on locomotor behaviors: AB zebrafish; for Distance moved / Variance turn angle: compound at 10 µM relative to controls, mean ± s.e.m., N = 12; for MEC: locomotor behaviors; for Effect on locomotor activity and turning behaviors, in words: 30 min spontaneous swimming period
[3] = system: wild-type (AB) zebrafish (Danio rerio); type: in vivo; conditions: compound at 10 µM relative to controls; mean ± s.e.m., N = 12
[4] = target: T1, human M1 muscarinic receptors (Homo sapiens, UniProt P11229); assay: [3H]AA release ACh dose-response families fitted to an allosteric operational model; conditions: for Operational efficacy-B, τB: best-fit ± s.e.m.; for Operational efficacy-B, τB / Affinity-B, logKB: Em set to 2.0; for Affinity-B, logKB: given as logKB (negative log value), allosteric site
T1 sequence (P11229 1-460): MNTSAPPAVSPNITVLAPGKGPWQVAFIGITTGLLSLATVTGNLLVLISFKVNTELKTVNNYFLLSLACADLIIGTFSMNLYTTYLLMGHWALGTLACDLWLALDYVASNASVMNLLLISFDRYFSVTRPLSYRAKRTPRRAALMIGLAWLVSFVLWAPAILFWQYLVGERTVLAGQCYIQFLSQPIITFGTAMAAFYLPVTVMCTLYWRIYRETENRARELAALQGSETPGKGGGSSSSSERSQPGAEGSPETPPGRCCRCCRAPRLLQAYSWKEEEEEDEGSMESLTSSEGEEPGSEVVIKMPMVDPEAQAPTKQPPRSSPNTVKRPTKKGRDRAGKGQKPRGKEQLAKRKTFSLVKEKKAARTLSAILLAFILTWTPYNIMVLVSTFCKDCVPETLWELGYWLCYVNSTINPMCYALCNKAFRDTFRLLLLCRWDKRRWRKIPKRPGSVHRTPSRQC
Procedure: Stably transfected CHO-hM1 cells were seeded on 24-well plates (Greiner Bio-One GmbH, Frickenhausen, Germany) at a density of 5.0 × 10^4 cells/well in 0.5 ml of F-12 medium. Cells were incubated until they attached (approximately 3 h), followed by the addition of [^3H]AA to a final concentration of 0.05 μCi of [^3H]AA per well. The cells were then grown for 16 to 20 h before the assay was performed. [^3H]AA release was measured in Eagle’s basal medium with 20 mM HEPES and 2 mg/ml fatty acid-free bovine serum albumin (EM-BSA). Cells were rinsed twice with EM-BSA, followed by the addition of EM-BSA media containing experimental agents and incubated for 1 h at 37 °C. The assay was terminated by aspiration of the media, and the amount of [^3H]AA released was determined by liquid scintillation counting (Beckman-Coulter LS6500).
Tabulated [^3H]AA release data are represented as a fraction of maximal release elicited by ACh or as the fraction of release elicited by the relevant concentration of ACh alone, as indicated. Dose-response curves were normalized to the maximal response of ACh without allosteric ligand. Where indicated, response curves were analyzed using the empirical four-parameter equation: Y=Top+Bottom-Top/1+X/C50^n where X is the concentration of the ligand used, Y is the amount of response, C50 is the concentration of the ligand that produces 50% of the maximal effect, Top and Bottom are the top and bottom plateaus of the curve, and n is related to the Hill slope for the curve. Where indicated, families of response curves were analyzed according to an allosteric operational model[50],[51]: Y=EM[τAA(KB+αβB)+τBBKA]/[τAA(KB+αβB)+τBBKA+AKB+KAKB+KAB+αAB] where EM is the maximal response; A is the concentration of ACh; B is the concentration of the allosteric ligand; τA and τB represent the operational efficacies of A and B, respectively; KA and KB are the equilibrium dissociation constants of A and B; and α and β represent the cooperativities between A and B in terms of binding and activation, respectively. Curve-fitting was carried out with GraphPad Prism, version 5.0 or 6.0 (San Diego CA).

[5] = target: T1, human M1 muscarinic receptors; assay: [3H]-arachidonic acid release in CHO cells expressing M1 receptors, with and without ACh (single modulator concentration, four-parameter curves); type: cell-based; design: expressed in transfected cells; host or cells: CHO cells stably transfected with hM1, obtained from Mark Brann's laboratory (NIH); conditions: for 0.1 µM ACh: response with modulator present divided by response to ACh alone / 100 µM ACh: response with modulator present divided by response to ACh alone / No ACh: agonist effect of the allosteric ligand by itself, fraction of the maximal response that could be elicited by ACh: modulator 10 µM, CHO-hM1, mean ± s.e.m.; for No ACh: agonist effect of the allosteric ligand by itself, fraction of the maximal response that could be elicited by ACh: at least 4 determinations; for Effect on M1 receptor activity and ACh response, in words: modulators at 10 µM (amiodarone 30 µM)

| SMILES | MTC (maximum tolerated concentration) [1] [µM] | Concentration up to which no signs of toxicity were produced [1] [µM] | Concentration with significant effects on locomotor behaviors [2] [µM] | Distance moved [2] | Variance turn angle [2] | MEC [2] [µM] | Angular velocity [3] [%] | Operational efficacy-B, τB [4] | Affinity-B, logKB [4] | Kb ([4]; read-out: KB, affinity for M1 muscarinic receptors, allosteric operational model) [nM] | 0.1 µM ACh: response with modulator present divided by response to ACh alone [5] | 100 µM ACh: response with modulator present divided by response to ACh alone [5] | No ACh: agonist effect of the allosteric ligand by itself, fraction of the maximal response that could be elicited by ACh [5] | Effect on M1 receptor activity and ACh response, in words [5] | Therap. index [2] | Effect on locomotor activity and turning behaviors, in words [2] |
| --- | --- | --- | --- | --- | --- | --- | --- | --- | --- | --- | --- | --- | --- | --- | --- | --- |
| COc1c(Br)cc(CN2C(=O)C(=O)c3ccccc32)cc1Br [Compound 8c, 1-(3,5-dibromo-4-methoxybenzyl)indoline-2,3-dione] | > 30 | ≥ 30 | 1 | 26.9 ± 3.7*** % | 150.8 ± 12.0*** % | 0.1 | 201.6 ± 20.2 | 0.33 ± 0.06 | −5.53 ± 0.15 | 3000 | 2.62 ± 0.19 | 1.42 ± 0.09 | 0.19 ± 0.03 | dramatically enhanced ACh efficacy | – | – |
| COc1c(I)cc(CN2C(=O)C(=O)c3ccccc32)cc1I [Compound 8a, 1-(3,5-diiodo-4-methoxybenzyl)indoline-2,3-dione] | > 30 | ≥ 30 | 1 | 45.8 ± 6.4*** % | 161.1 ± 13.4*** % | 0.3 | 197.1 ± 19.8 | 0.17 ± 0.03 | −6.26 ± 0.15 | – | 2.44 ± 0.21 | 1.62 ± 0.06 | 0.24 ± 0.04 | significant enhancement of ACh activity; also recorded: dramatically enhanced ACh efficacy | > 100 | reduced locomotor activity |
| CCN(CC)CCOc1ccc(CN2C(=O)C(=O)c3ccccc32)cc1 [Compound 7, 1-(4-(2-(diethylamino)ethoxy)benzyl)indoline-2,3-dione] | 10 | – | – | 72.5 ± 11.8% | 93.9 ± 10.6% | > 10 | 122.4 ± 6.9 | – | −6.20 ± 0.33 | – | 0.06 ± 0.01 | 1.11 ± 0.06 | 0.02 ± 0.01 | primarily decreased potency and slightly enhanced the efficacy of ACh; also recorded: lacked intrinsic activity; also recorded: decreased ACh potency with little impact on ACh efficacy | – | not effective in reducing locomotor activity or elevating angular velocity or variance of turn angle |
| CCCCc1oc2ccccc2c1C(=O)c1cc(I)c(OCCN(CC)C(C)=O)c(I)c1 [Compound 5, N-(2-(4-(2-butylbenzofuran-3-carbonyl)-2,6-diiodophenoxy)ethyl)-N-ethylacetamide] | 10 | – | – | 108.0 ± 12.9% | 102.5 ± 8.1% | > 10 | 104.0 ± 10.7 | – | – | – | 1.86 ± 0.42 | 1.47 ± 0.09 | 0.22 ± 0.03 | significant intrinsic agonist activity | – | – |
